From patent US20230406865A1, “CRYSTAL FORM OF FREE BASE OF INHIBITOR CONTAINING BICYCLIC RING DERIVATIVE AND PREPARATION METHOD AND APPLICATION OF CRYSTAL FORM” (SHANGHAI HANSOH BIOMEDICAL CO., LTD., priority 2020, published 2023) come the findings set out here.

The structures appear in SMILES notation.

One data set deals with T1, Ba/F3 KIF5B-RET cells (Homo sapiens, UniProt P07949).
T1 construct: fused on or other part: P33176 (Kinesin-1 heavy chain)
In words: Inhibition of proliferation of Ba/F3 KIF5B-RET cells (CellTiter-Glo). The settings on record: 72 to 144 hours. In kind it is cell-based. The gist of the method:
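Cells plated overnight, then exposed to compound dilutions in DMSO/medium at 37° C, 5% CO2 for 72 to 144 hours. Viability read by CellTiter-Glo luminescence; IC50 from inhibition rates fitted by nonlinear regression.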

Data set [1] concerns subcutaneous transplanted tumor of Ba/F3 KIF5B-RET cells. In words: Tumor suppression on Ba/F3 KIF5B-RET transplanted tumor model. Format: in vivo, BALB/c nude mice. The procedure: Ba/F3 KIF5B-RET cells were removed from the cell bank, resuscitated and added to RPMI1640 medium (RPMI1640+10% FBS+1% Glu+1% P/S), then cultured in a CO2 incubator (incubator temperature was 37° C., CO2 concentration was 5%), and when the cell number expanded to the required number for in vivo inoculation, Ba/F3 KIF5B-RET cells were collected. The cells were counted with an automatic cell counter, resuspended with PBS according to the count results, made into a cell suspension (density was 2×10^7/mL), and placed in an ice box for use.
Female BALB/c nude mice aged 6-8 weeks were used, weighing about 18-22 g. Mice were reared in SPF animal room, and were reared in a single cage with 5 mice in each cage. All cages, bedding and water were sterilized at high temperature before use, and all animals were allowed to eat and drink freely. Nude mice were labeled with disposable universal ear tags for mice and rats before the start of the experiment, and the skin of the inoculation site was disinfected with 75% medical alcohol before inoculation. 0.1 mL (containing 2*10^6 cells) of Ba/F3 KIF5B-RET cells were inoculated subcutaneously on the right back of each mouse. Group administration was initiated when the tumor volume reached 60-200 mm^3, with 5 mice in each group. Each test compound was administered orally twice a day for 14 days. The tumor volume and the weight of mice were measured twice a week, and the tumor TGI (%) was calculated.
The tumor volume (mm^3) was calculated as V=0.5*D*d*d, where D and d were the long and short diameters of the tumor, respectively.
When there was no tumor regression, TGI (%)=[(1-(mean tumor volume at the end of the administration in a treatment group−mean tumor volume at the start of administration in the treatment group))/(mean tumor volume at the end of treatment in the solvent control group−mean tumor volume at the start of treatment in the solvent control group)]×100%.
When there was tumor regression, TGI (%)=[1-(mean tumor volume at the end of administration in a treatment group−mean tumor volume at the beginning of administration in the treatment group)/mean tumor volume at the beginning of administration in the treatment group]×100%.

Data set [2] in a line: Balb/C mouse pharmacokinetics, oral 5 mg/kg. In kind it is in vivo, Balb/C mice. The settings on record: male, p.o. 5 mg/kg, plasma; for MRT: read-out: Average residence time MRT; for Cmax: read-out: Blood concentration Cmax; for AUC(0-t): read-out: Curve area AUC0-t; for AUC(0-inf): read-out: Curve area AUC0-∞; for half-life: read-out: Half-life t1/2 (converted); for Tmax: read-out: Peak time tmax. The gist of the method:
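Male Balb/C mice (6 per compound) were fasted overnight and dosed in 0.5% CMC-Na (1% Tween80) solution or suspension. EDTA-K2 plasma was sampled at 0, 0.5, 1, 2, 4, 6, 8 and 24 h. Compound levels were measured by LC/MS/MS after acetonitrile precipitation, and PK parameters were derived from the plasma profiles.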

T1 sequence (P07949 whole entry, change not shown, the tested form may be a part): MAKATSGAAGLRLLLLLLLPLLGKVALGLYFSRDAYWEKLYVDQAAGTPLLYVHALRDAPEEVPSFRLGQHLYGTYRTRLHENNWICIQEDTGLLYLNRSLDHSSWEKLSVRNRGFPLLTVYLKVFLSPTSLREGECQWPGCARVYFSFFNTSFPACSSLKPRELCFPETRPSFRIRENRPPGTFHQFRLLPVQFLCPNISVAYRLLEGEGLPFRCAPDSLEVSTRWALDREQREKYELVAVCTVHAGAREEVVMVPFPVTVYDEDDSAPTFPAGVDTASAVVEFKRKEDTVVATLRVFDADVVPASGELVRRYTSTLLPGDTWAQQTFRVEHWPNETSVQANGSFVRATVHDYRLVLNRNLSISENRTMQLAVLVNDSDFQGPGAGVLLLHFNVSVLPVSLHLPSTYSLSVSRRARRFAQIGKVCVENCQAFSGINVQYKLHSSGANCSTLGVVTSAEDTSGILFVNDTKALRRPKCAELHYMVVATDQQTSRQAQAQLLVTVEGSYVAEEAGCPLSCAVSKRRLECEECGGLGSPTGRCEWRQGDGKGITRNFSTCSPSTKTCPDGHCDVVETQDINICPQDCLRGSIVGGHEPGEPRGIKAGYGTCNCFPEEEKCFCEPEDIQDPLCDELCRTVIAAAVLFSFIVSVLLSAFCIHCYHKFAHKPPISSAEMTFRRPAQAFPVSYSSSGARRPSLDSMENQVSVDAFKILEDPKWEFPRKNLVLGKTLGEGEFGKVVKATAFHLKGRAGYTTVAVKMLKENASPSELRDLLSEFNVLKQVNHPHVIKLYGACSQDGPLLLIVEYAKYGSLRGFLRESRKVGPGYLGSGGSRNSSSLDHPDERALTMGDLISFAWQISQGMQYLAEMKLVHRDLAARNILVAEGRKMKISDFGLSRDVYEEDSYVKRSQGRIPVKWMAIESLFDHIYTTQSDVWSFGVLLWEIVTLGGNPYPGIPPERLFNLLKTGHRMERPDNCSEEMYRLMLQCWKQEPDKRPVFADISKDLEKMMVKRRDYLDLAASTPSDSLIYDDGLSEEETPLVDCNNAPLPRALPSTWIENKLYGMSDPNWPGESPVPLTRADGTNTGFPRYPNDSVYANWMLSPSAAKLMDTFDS

A word on the IC50: it is the concentration that gives 50% inhibition. The MRT is a mean duration of stay, worked out from the concentration-time curve. Broadly, the Tmax is the time at which the peak concentration occurs. For the molecule `C#C[C@@](C)(O)COc1cc(-c2ccc(N3CC4CC(C3)N4Cc3ccc(OC)nc3)nc2)c2c(C#N)cnn2c1` [Embodiment 63, 6-(((R)-2-hydroxy-2-methylbut-3-yn-1-yl)oxy)-4-(6-(6-((6-methoxypyridin-3-yl)methyl)-3,6-diazabicyclo[3.1.1]heptan-3-yl)pyridin-3-yl)pyrazolo[1,5-a]pyridine-3-carbonitrile], on Ba/F3 KIF5B-RET cells, the IC50 came out at 11.1 nM. In addition, in data set [1] (10 mg/kg oral twice a day), the “Tumor volume (Mean ± SD) Day 0” value is on record as 126.13 ± 17.24 mm^3, the “TGI (%) Day 14” value came out at 94.66% and the “Tumor volume (Mean ± SD) Day 14” value amounted to 219.86 ± 64.31 mm^3. Further, in data set [2], the MRT amounted to 2.9 h, the Cmax was determined as 2940 ng/mL, the AUC(0-t) amounted to 11000 ng·h/mL and the AUC(0-inf) was found to be 11000 ng·h/mL. In data set [2], the half-life was 1.3 h and the Tmax was determined as 1 h.
Turning to `COc1ccc(CN2C3CC2CN(c2ccc(-c4cc(N5CC(C)(C#N)C5)cn5ncc(C#N)c45)cn2)C3)cn1` [Embodiment 77, 6-(3-Cyano-3-methylazetidin-1-yl)-4-(6-(6-((6-methoxypyridin-3-yl)methyl)-3,6-diazabicyclo[3.1.1]heptan-3-yl)pyridin-3-yl)pyrazolo[1,5-a]pyridine-3-carbonitrile], on Ba/F3 KIF5B-RET cells, the IC50 was 4.79 nM. Besides, in data set [1] (10 mg/kg oral twice a day), the “Tumor volume (Mean ± SD) Day 0” value came out at 101.59 ± 36.86 mm^3, the “TGI (%) Day 14” value is listed as 159.80% and the “Tumor volume (Mean ± SD) Day 14” value amounted to 40.84 ± 53.92 mm^3. In data set [2], the MRT is 6 h, the Cmax was 4680 ng/mL, the AUC(0-t) came out at 51600 ng·h/mL and the AUC(0-inf) amounted to 51900 ng·h/mL. Further, in data set [2], the half-life is 3.2 h and the Tmax turned out to be 0.5 h.
As for `C#C[C@](C)(O)COc1cc(-c2ccc(N3CC4CC(C3)N4Cc3ccc(OC)nc3)nc2)c2c(C#N)cnn2c1` [Embodiment 64, 6-(((S)-2-hydroxy-2-methylbut-3-yn-1-yl)oxy)-4-(6-(6-((6-methoxypyridin-3-yl)methyl)-3,6-diazabicyclo[3.1.1]heptan-3-yl)pyridin-3-yl)pyrazolo[1,5-a]pyridine-3-carbonitrile], the IC50 at Ba/F3 KIF5B-RET cells stood at 22.6 nM. Also, in data set [1] (10 mg/kg oral twice a day), the “Tumor volume (Mean ± SD) Day 0” value came to 126.93 ± 16.98 mm^3, the “TGI (%) Day 14” value is recorded as 88.39% and the “Tumor volume (Mean ± SD) Day 14” value came out at 330.85 ± 147.00 mm^3. Also, in data set [2], the MRT is 2.7 h, the Cmax came out at 3920 ng/mL, the AUC(0-t) is 14500 ng·h/mL and the AUC(0-inf) was found to be 14500 ng·h/mL. In addition, in data set [2], the half-life was 1.2 h and the time to peak (Tmax) is 1 h.
In the case of `COc1ncc(CN2C3CC2CN(c2ccc(-c4cc(C#CC(C)(C)O)cn5ncc(C#N)c45)cn2)C3)cc1F` [Embodiment 18, 4-(6-(6-((5-Fluoro-6-methoxypyridin-3-yl)methyl)-3,6-diazabicyclo[3.1.1]heptan-3-yl)pyridin-3-yl)-6-(3-hydroxy-3-methylbut-1-yn-1-yl)pyrazolo[1,5-a]pyridine-3-carbonitrile], the IC50 at Ba/F3 KIF5B-RET cells was found to be 22.6 nM. Further, in data set [1] (30 mg/kg oral twice a day), the “Tumor volume (Mean ± SD) Day 0” value came out at 132.34 ± 19.40 mm^3, the “TGI (%) Day 14” value is 110.35% and the “Tumor volume (Mean ± SD) Day 14” value was 118.64 ± 84.34 mm^3. Besides, in data set [2], the MRT worked out at 4.61 h, the Cmax stood at 2790 ng/mL, the AUC(0-t) turned out to be 18200 ng·h/mL and the AUC(0-inf) amounted to 18200 ng·h/mL. Further, in data set [2], the half-life was 2.9 h and the Tmax stood at 0.5 h.
